Results published in patent US20090069319A1, “IMIDAZOPYRIDINE ANALOGS AND THEIR USE AS AGONISTS OF THE WNT-BETA-CATENIN CELLULAR MESSAGING SYSTEM” (Wyeth, priority 2007, published 2009).

Experiment: Functional Dkk1-LRP5-TCF-Luciferase Assay in U2OS Cells (table columns: A=MAX FOLD Induction/DMSO CONTROL; B=fold induction @ 2.0 uM; C=fold induction @ 20.0 uM)
Format: cell-based, Human
Conditions: Homo sapiens, U2OS; for fold induction at 2 µM: 2.0 uM compound; for fold induction at 20 µM: 20.0 uM compound
In short: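 U2OS cells co-transfected with 16×TCF-TK-firefly luciferase, TK-Renilla control, Wnt3a and Dkk1, then frozen; thawed cells (~5,000/well, ~5% FBS, phenol red-free RPMI) incubated ~20 h at 37° C. with compound (0.25% DMSO). Firefly luminescence (Bright-Glo) normalized to DMSO mean as fold induction.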

Row | SMILES | fold induction at 2 µM | fold induction at 20 µM
1 | Oc1ccccc1-c1nc2c(-c3ccc4ccccc4c3)ccnc2n1C1CCNCC1 [2-[7-(2-naphthyl)-3-piperidin-4-yl-3H-imidazo[4,5-b]pyridin-2-yl]phenol] | 1.35 | 0.01
2 | FC(F)(F)c1cccc(-c2nc3c(-c4ccc5ccccc5c4)ccnc3n2C2CCNCC2)c1Cl [2-[2-chloro-3-(trifluoromethyl)phenyl]-7-(2-naphthyl)-3-piperidin-4-yl-3H-imidazo[4,5-b]pyridine] | 1.21 | 
3 | c1ccc2cc(-c3ccnc4c3nc(-c3ccc5occc5c3)n4C3CCNCC3)ccc2c1 [2-(1-benzofuran-5-yl)-7-(2-naphthyl)-3-piperidin-4-yl-3H-imidazo[4,5-b]pyridine] | 0.9 | 1.02
4 | O=[N+]([O-])c1cccc(-c2nc3c(-c4ccc5ccccc5c4)ccnc3n2C2CCNCC2)c1 [7-(2-naphthyl)-2-(3-nitrophenyl)-3-piperidin-4-yl-3H-imidazo[4,5-b]pyridine] | 1.29 | 
5 | CC(C)c1nc2cc(-c3ccc4ccccc4c3)cnc2n1C1CCNCC1 [2-isopropyl-6-(2-naphthyl)-3-piperidin-4-yl-3H-imidazo[4,5-b]pyridine] | 1.44 | 
6 | CC(=O)N1CCC(n2c(=O)n(C)c3c(-c4ccc5ccccc5c4)ccnc32)CC1 [3-(1-acetylpiperidin-4-yl)-1-methyl-7-(2-naphthyl)-1,3-dihydro-2H-imidazo[4,5-b]pyridin-2-one] | 1.09 | 0.51
7 | Fc1cccc(-c2nc3c(-c4ccc5ccccc5c4)ccnc3n2C2CCNCC2)c1F [2-(2,3-difluorophenyl)-7-(2-naphthyl)-3-piperidin-4-yl-3H-imidazo[4,5-b]pyridine] | 1.9 | 
8 | c1ccc2cc(-c3cnc4c(c3)nc(-c3cc5ccccc5o3)n4C3CCNCC3)ccc2c1 [2-(1-benzofuran-2-yl)-6-(2-naphthyl)-3-piperidin-4-yl-3H-imidazo[4,5-b]pyridine] | 1 | 
9 | COc1cccc(-c2nc3cc(-c4ccc5ccccc5c4)cnc3n2C2CCNCC2)c1 [2-(3-methoxyphenyl)-6-(2-naphthyl)-3-piperidin-4-yl-3H-imidazo[4,5-b]pyridine] | 0.97 | 
10 | Brc1ccc(-c2nc3c(-c4ccc5ccccc5c4)ccnc3n2C2CCNCC2)cc1 [2-(4-bromophenyl)-7-(2-naphthyl)-3-piperidin-4-yl-3H-imidazo[4,5-b]pyridine] | 1.23 | 
11 | Cc1cccc(-c2nc3cc(-c4ccc5ccccc5c4)cnc3n2C2CCNCC2)c1 [2-(3-methylphenyl)-6-(2-naphthyl)-3-piperidin-4-yl-3H-imidazo[4,5-b]pyridine] | 1.33 | 
12 | c1ccc2cc(-c3ccnc4c3nc(C3CCCCC3)n4C3CCNCC3)ccc2c1 [2-cyclohexyl-7-(2-naphthyl)-3-piperidin-4-yl-3H-imidazo[4,5-b]pyridine] | 1.88 | 
13 | Cc1nc[nH]c1-c1nc2c(-c3ccc4ccccc4c3)ccnc2n1C1CCNCC1 [2-(4-methyl-1H-imidazol-5-yl)-7-(2-naphthyl)-3-piperidin-4-yl-3H-imidazo[4,5-b]pyridine] | 1.31 | 
14 | Cn1cc(-c2nc3cc(-c4ccc5ccccc5c4)cnc3n2C2CCNCC2)c2ccccc21 [2-(1-methyl-1H-indol-3-yl)-6-(2-naphthyl)-3-piperidin-4-yl-3H-imidazo[4,5-b]pyridine] | 1.04 | 
15 | CC(C)Cc1nc2cc(-c3ccc4ccccc4c3)cnc2n1C1CCNCC1 [2-isobutyl-6-(2-naphthyl)-3-piperidin-4-yl-3H-imidazo[4,5-b]pyridine] | 1.13 | 
16 | c1ccc(Oc2cccc(-c3nc4c(-c5ccc6ccccc6c5)ccnc4n3C3CCNCC3)c2)cc1 [7-(2-naphthyl)-2-(3-phenoxyphenyl)-3-piperidin-4-yl-3H-imidazo[4,5-b]pyridine] | 1.4 | 
17 | c1ccc(-c2nc3cc(-c4ccc5ccccc5c4)cnc3n2C2CCNCC2)cc1 [6-(2-naphthyl)-2-phenyl-3-piperidin-4-yl-3H-imidazo[4,5-b]pyridine] | 1.6 | 
18 | FC(F)(F)c1ccc(-c2nc3c(-c4ccc5ccccc5c4)ccnc3n2C2CCNCC2)cc1 [7-(2-naphthyl)-3-piperidin-4-yl-2-[4-(trifluoromethyl)phenyl]-3H-imidazo[4,5-b]pyridine] | 1.28 | 
19 | O=[N+]([O-])c1ccccc1-c1nc2c(-c3ccc4ccccc4c3)ccnc2n1C1CCNCC1 [7-(2-naphthyl)-2-(2-nitrophenyl)-3-piperidin-4-yl-3H-imidazo[4,5-b]pyridine] | 1.14 | 
20 | O=[N+]([O-])c1cc(-c2nc3c(-c4ccc5ccccc5c4)ccnc3n2C2CCNCC2)ccc1N1CCOCC1 [2-(4-morpholin-4-yl-3-nitrophenyl)-7-(2-naphthyl)-3-piperidin-4-yl-3H-imidazo[4,5-b]pyridine] | 1.44 | 0.06
21 | c1ccc2cc(-c3cnc4c(c3)nc(-c3c[nH]c5ccccc35)n4C3CCNCC3)ccc2c1 [2-(1H-indol-3-yl)-6-(2-naphthyl)-3-piperidin-4-yl-3H-imidazo[4,5-b]pyridine] | 1.11 | 

Row | SMILES | fold induction at 2 µM | fold induction at 20 µM
22 | Clc1ccc(-c2nc3c(-c4ccc5ccccc5c4)ccnc3n2C2CCNCC2)cc1 [2-(4-chlorophenyl)-7-(2-naphthyl)-3-piperidin-4-yl-3H-imidazo[4,5-b]pyridine] | 1.21 | 
23 | Clc1ccc(-c2nc3cc(-c4ccc5ccccc5c4)cnc3n2C2CCNCC2)c(Cl)c1 [2-(2,4-dichlorophenyl)-6-(2-naphthyl)-3-piperidin-4-yl-3H-imidazo[4,5-b]pyridine] | 1.04 | 
24 | O=C(N1CCOCC1)N1CCC(n2cnc3c(-c4ccc5ccccc5c4)ccnc32)CC1 [3-[1-(morpholin-4-ylcarbonyl)piperidin-4-yl]-7-(2-naphthyl)-3H-imidazo[4,5-b]pyridine] | 1.08 | 1.25
25 | Fc1cccc(-c2nc3c(-c4ccc5ccccc5c4)ccnc3n2C2CCNCC2)c1 [2-(3-fluorophenyl)-7-(2-naphthyl)-3-piperidin-4-yl-3H-imidazo[4,5-b]pyridine] | 1.55 | 
26 | Cc1ccc(-c2nc3c(-c4ccc5ccccc5c4)ccnc3n2C2CCNCC2)o1 [2-(5-methyl-2-furyl)-7-(2-naphthyl)-3-piperidin-4-yl-3H-imidazo[4,5-b]pyridine] | 1.17 | 
27 | CC(C)NC(=O)N1CCC(n2c(=O)[nH]c3c(-c4ccc5ccccc5c4)ccnc32)CC1 [N-isopropyl-4-[7-(2-naphthyl)-2-oxo-1,2-dihydro-3H-imidazo[4,5-b]pyridin-3-yl]piperidine-1-carboxamide] | 1.42 | 1.1
28 | Cc1ccc(-c2nc3cc(-c4ccc5ccccc5c4)cnc3n2C2CCNCC2)o1 [2-(5-methyl-2-furyl)-6-(2-naphthyl)-3-piperidin-4-yl-3H-imidazo[4,5-b]pyridine] | 1.23 | 
29 | C=Cc1cccc(-c2nc3c(-c4ccc5ccccc5c4)ccnc3n2C2CCNCC2)c1 [7-(2-naphthyl)-3-piperidin-4-yl-2-(3-vinylphenyl)-3H-imidazo[4,5-b]pyridine] | 1.44 | 
30 | Brc1cccc(-c2nc3c(-c4ccc5ccccc5c4)ccnc3n2C2CCNCC2)c1 [2-(3-bromophenyl)-7-(2-naphthyl)-3-piperidin-4-yl-3H-imidazo[4,5-b]pyridine] | 1.52 | 
31 | c1c[nH]c(-c2nc3c(-c4ccc5ccccc5c4)ccnc3n2C2CCNCC2)c1 [7-(2-naphthyl)-3-piperidin-4-yl-2-(1H-pyrrol-2-yl)-3H-imidazo[4,5-b]pyridine] | 1.25 | 
32 | O=[N+]([O-])c1cc(-c2nc3cc(-c4ccc5ccccc5c4)cnc3n2C2CCNCC2)ccc1N1CCOCC1 [2-(4-morpholin-4-yl-3-nitrophenyl)-6-(2-naphthyl)-3-piperidin-4-yl-3H-imidazo[4,5-b]pyridine] | 1.01 | 
33 | COc1ccccc1-c1nc2c(-c3ccc4ccccc4c3)ccnc2n1C1CCNCC1 [2-(2-methoxyphenyl)-7-(2-naphthyl)-3-piperidin-4-yl-3H-imidazo[4,5-b]pyridine] | 1.99 | 
34 | c1ccc2cc(-c3ccnc4c3nc(-c3cccc5cccnc35)n4C3CCNCC3)ccc2c1 [8-[7-(2-naphthyl)-3-piperidin-4-yl-3H-imidazo[4,5-b]pyridin-2-yl]quinoline] |  | 1.01
35 | Cn1ccnc1-c1nc2c(-c3ccc4ccccc4c3)ccnc2n1C1CCNCC1 [2-(1-methyl-1H-imidazol-2-yl)-7-(2-naphthyl)-3-piperidin-4-yl-3H-imidazo[4,5-b]pyridine] | 1.84 | 
36 | c1ccc2cc(-c3ccc4ncn(C5CCNCC5)c4n3)ccc2c1 [5-(2-naphthyl)-3-piperidin-4-yl-3H-imidazo[4,5-b]pyridine] | 0.32 | 
37 | Clc1ccc(-c2nc3c(-c4ccc5ccccc5c4)ccnc3n2C2CCNCC2)c(Cl)c1 [2-(2,4-dichlorophenyl)-7-(2-naphthyl)-3-piperidin-4-yl-3H-imidazo[4,5-b]pyridine] | 1.1 | 
38 | O=[N+]([O-])c1ccc(O)cc1-c1nc2c(-c3ccc4ccccc4c3)ccnc2n1C1CCNCC1 [3-[7-(2-naphthyl)-3-piperidin-4-yl-3H-imidazo[4,5-b]pyridin-2-yl]-4-nitrophenol] | 1.4 | 0.98
39 | FC(F)(F)c1cccc(-c2nc3c(-c4ccc5ccccc5c4)ccnc3n2C2CCNCC2)c1 [7-(2-naphthyl)-3-piperidin-4-yl-2-[3-(trifluoromethyl)phenyl]-3H-imidazo[4,5-b]pyridine] | 1.54 | 
40 | Cn1c(-c2nc3c(-c4ccc5ccccc5c4)ccnc3n2C2CCNCC2)cc2ccccc21 [2-(1-methyl-1H-indol-2-yl)-7-(2-naphthyl)-3-piperidin-4-yl-3H-imidazo[4,5-b]pyridine] | 1.17 | 
41 | FC(F)(F)c1ccccc1-c1nc2c(-c3ccc4ccccc4c3)ccnc2n1C1CCNCC1 [7-(2-naphthyl)-3-piperidin-4-yl-2-[2-(trifluoromethyl)phenyl]-3H-imidazo[4,5-b]pyridine] | 1.72 | 
